Type in all cases: in vivo
The subject of test [1] is Plutella xylostella. Put plainly: Action against Plutella xylostella caterpillars (spray on young cabbage plants). The conditions noted are these: 72 h, 12.5 ppm spray mixture, 10 caterpillars in the first stage, 3 days later, read-out: percentage reduction in population and percentage reduction in feeding damage (% activity). As for the experimental part:
After the spray-coating has dried, the cabbage plants are populated with 10 caterpillars of Plutella xylostella in the first stage and placed in a plastics container. Evaluation is made 3 days later. The percentage reduction in population and the percentage reduction in feeding damage (% activity) are determined by comparing the number of dead caterpillars and the feeding damage on the treated plants with that on the untreated plants.

Test [2] has as its system Tetranychus urticae. The test is described as follows: Action against Tetranychus urticae (spray on young bean plants). The conditions noted are these: 144 h, 12.5 ppm spray mixture, mixed population, 6 days at 25° C., read-out: percentage reduction in population (% activity). Here is the method: The plants are incubated for 6 days at 25° C. and subsequently evaluated. The percentage reduction in population (% activity) is determined by comparing the number of dead eggs, larvae and adults on the treated plants with that on untreated plants.

Test [3] concerns Spodoptera littoralis. The test is described as follows: Action against Spodoptera littoralis (foliar spray on young soybean plants). The conditions noted are these: 72 h, 12.5 ppm spray mixture, 10 caterpillars in the first stage, 3 days later, read-out: percentage reduction in population and percentage reduction in feeding damage (% activity). Here is the method: 3 days later, the percentage reduction in population and the percentage reduction in feeding damage (% activity) are determined by comparing the number of dead caterpillars and the feeding damage on the treated plants with that on untreated plants.

With `CCC(C)[C@H]1O[C@]2(C=C[C@@H]1C)C[C@@H]1C[C@@H](C/C=C(\C)[C@@H](OC3C[C@H](OC)[C@@H](OC4C[C@H](OC)[C@H](OCOCCOC)[C@H](C)O4)[C@H](C)O3)C(C)/C=C/C=C3\CO[C@@H]4[C@H](O)C(C)=C[C@@H](C(=O)O1)[C@]34O)O2` (stereo partly drawn) [Compound 2.8, 4″-epi-O-(2-methoxyethoxymethyl)-Avermectin B1], the inhibition at 12.5 ppm in test [1] is more than 80%.

For the compound `CCC(C)[C@H]1O[C@]2(C=C[C@@H]1C)C[C@@H]1C[C@@H](C/C=C(\C)[C@@H](OC3C[C@H](OC)[C@@H](OCOCCN)[C@H](C)O3)C(C)/C=C/C=C3\CO[C@@H]4[C@H](O)C(C)=C[C@@H](C(=O)O1)[C@]34O)O2` (stereo partly drawn) [Compound 3.19], the inhibition at 12.5 ppm in test [2] and in test [3] was more than 80% in each case.

Source of the values: patent US8017589B2, “Avermectin B1 and avermectin B1 monosaccharide derivatives having an alkoxymethyl substituent in the 4″-or 4′-position” (Syngenta Crop Protection LLC, priority 2002, dated 2011).
